Test results as given in ChEMBL document CHEMBL1201862, “PubChem BioAssay data set” (2004).
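Cultured in 96-well plates, cells were exposed to test compound for 48 hours across five concentrations. Here, GI50 denotes the concentration required for 50% inhibition of growth.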 Calls of active or inactive are those of the source. No stated cut-off is given here; in the data, active = GI50 up to about 1.1 µM and inactive = higher.

Columns and labels:
Test in all cases: DTP human tumour cell line panel, 48 h
MCF7 = test system: MCF7
NCI-H23 = test system: NCI-H23
MDA-MB-231 = test system: MDA-MB-231
SK-MEL-5 = test system: SK-MEL-5
MOLT-4 = test system: MOLT-4
NCI-H226 = test system: NCI-H226
RPMI-8226 = test system: RPMI-8226
TK-10 = test system: TK-10
Hs-578T = test system: Hs-578T
DU-145 = test system: DU-145
SNB-19 = test system: SNB-19
HL-60 = test system: HL-60
Malme-3M = test system: Malme-3M
UO-31 = test system: UO-31
OVCAR-5 = test system: OVCAR-5
MDA-N = test system: MDA-N
IGROV-1 = test system: IGROV-1
M14 = test system: M14
OVCAR-3 = test system: OVCAR-3
SF-268 = test system: SF-268
HCC 2998 = test system: HCC 2998
SK-MEL-28 = test system: SK-MEL-28
EKVX = test system: EKVX
COLO 205 = test system: COLO 205
CCRF-CEM = test system: CCRF-CEM
OVCAR-8 = test system: OVCAR-8
BT-549 = test system: BT-549
PC-3 = test system: PC-3
A498 = test system: A498
SF-539 = test system: SF-539
SK-OV-3 = test system: SK-OV-3
SR = test system: SR
786-0 = test system: 786-0
HOP-92 = test system: HOP-92
LOX IMVI = test system: LOX IMVI
UACC-62 = test system: UACC-62
ACHN = test system: ACHN
A549 = test system: A549
KM12 = test system: KM12
HT-29 = test system: HT-29
NCI/ADR-RES = test system: NCI/ADR-RES
SK-MEL-2 = test system: SK-MEL-2
NCI-H460 = test system: NCI-H460
HOP-62 = test system: HOP-62
HCT-15 = test system: HCT-15
SN12C = test system: SN12C
T47D = test system: T47D
HCT-116 = test system: HCT-116
SNB-75 = test system: SNB-75
SW-620 = test system: SW-620
MDA-MB-435 = test system: MDA-MB-435
CAKI-1 = test system: CAKI-1
U-251 = test system: U-251
UACC-257 = test system: UACC-257
RXF 393 = test system: RXF 393
SF-295 = test system: SF-295
NCI-H522 = test system: NCI-H522
K562 = test system: K562
OVCAR-4 = test system: OVCAR-4

CCOC(=O)NC(Nc1cccc(F)c1)(C(F)(F)F)C(F)(F)F
GI50 (MCF7): > 100 µM (inactive)
GI50 (NCI-H23): > 100 µM (inactive)
GI50 (MDA-MB-231): > 100 µM (inactive)
GI50 (SK-MEL-5): > 100 µM (inactive)
GI50 (MOLT-4): > 100 µM (inactive)
GI50 (NCI-H226): > 100 µM (inactive)
GI50 (RPMI-8226): > 100 µM (inactive)
GI50 (TK-10): > 100 µM (inactive)
GI50 (Hs-578T): > 100 µM (inactive)
GI50 (DU-145): > 100 µM (inactive)
GI50 (SNB-19): > 100 µM (inactive)
GI50 (HL-60): > 100 µM (inactive)
GI50 (Malme-3M): > 100 µM (inactive)
GI50 (UO-31): 4.94 µM (inactive)
GI50 (OVCAR-5): > 100 µM (inactive)
GI50 (MDA-N): > 100 µM (inactive)
GI50 (IGROV-1): > 100 µM (inactive)
GI50 (M14): > 100 µM (inactive)
GI50 (OVCAR-3): > 100 µM (inactive)
GI50 (SF-268): > 100 µM (inactive)
GI50 (HCC 2998): > 100 µM (inactive)
GI50 (SK-MEL-28): > 100 µM (inactive)
GI50 (EKVX): > 100 µM (inactive)
GI50 (COLO 205): > 100 µM (inactive)
GI50 (CCRF-CEM): > 100 µM (inactive)
GI50 (OVCAR-8): > 100 µM (inactive)
GI50 (BT-549): > 100 µM (inactive)
GI50 (PC-3): > 100 µM (inactive)
GI50 (A498): > 100 µM (inactive)
GI50 (SF-539): > 100 µM (inactive)
GI50 (SK-OV-3): > 100 µM (inactive)
GI50 (SR): 7 µM (inactive)
GI50 (786-0): > 100 µM (inactive)
GI50 (HOP-92): > 100 µM (inactive)
GI50 (LOX IMVI): > 100 µM (inactive)
GI50 (UACC-62): 86.5 µM (inactive)
GI50 (ACHN): > 100 µM (inactive)
GI50 (A549): > 100 µM (inactive)
GI50 (KM12): > 100 µM (inactive)
GI50 (HT-29): > 100 µM (inactive)
GI50 (NCI/ADR-RES): > 100 µM (inactive)
GI50 (SK-MEL-2): > 100 µM (inactive)
GI50 (NCI-H460): > 100 µM (inactive)
GI50 (HOP-62): > 100 µM (inactive)
GI50 (HCT-15): > 100 µM
GI50 (SN12C): > 100 µM (inactive)
GI50 (T47D): > 100 µM (inactive)
GI50 (HCT-116): > 100 µM (inactive)
GI50 (SNB-75): > 100 µM (inactive)
GI50 (SW-620): > 100 µM (inactive)
GI50 (MDA-MB-435): > 100 µM (inactive)
GI50 (CAKI-1): > 100 µM (inactive)
GI50 (U-251): > 100 µM (inactive)
GI50 (UACC-257): > 100 µM (inactive)
GI50 (RXF 393): > 100 µM (inactive)
GI50 (SF-295): > 100 µM (inactive)
GI50 (NCI-H522): > 100 µM (inactive)
GI50 (K562): 48.4 µM (inactive)

COc1cc(C(=O)O[C@@H]2[C@@H](OC(=O)c3cc(OC)c(OC)c(OC)c3)[C@@H](OC)O[C@@H]3CO[C@@H](c4ccccc4)O[C@@H]23)cc(OC)c1OC
GI50 (MCF7): > 100 µM (inactive)
GI50 (OVCAR-4): > 100 µM (inactive)
GI50 (NCI-H23): > 100 µM (inactive)
GI50 (MDA-MB-231): > 100 µM (inactive)
GI50 (SK-MEL-5): > 100 µM (inactive)
GI50 (MOLT-4): > 100 µM (inactive)
GI50 (NCI-H226): > 100 µM (inactive)
GI50 (RPMI-8226): > 100 µM (inactive)
GI50 (TK-10): > 100 µM (inactive)
GI50 (Hs-578T): > 100 µM (inactive)
GI50 (DU-145): > 100 µM (inactive)
GI50 (SNB-19): > 100 µM (inactive)
GI50 (HL-60): > 100 µM (inactive)
GI50 (Malme-3M): > 100 µM (inactive)
GI50 (UO-31): > 100 µM (inactive)
GI50 (OVCAR-5): > 100 µM (inactive)
GI50 (MDA-N): > 100 µM (inactive)
GI50 (IGROV-1): > 100 µM (inactive)
GI50 (M14): > 100 µM (inactive)
GI50 (OVCAR-3): > 100 µM (inactive)
GI50 (SF-268): > 100 µM (inactive)
GI50 (HCC 2998): > 100 µM (inactive)
GI50 (SK-MEL-28): > 100 µM (inactive)
GI50 (EKVX): > 100 µM (inactive)
GI50 (COLO 205): > 100 µM (inactive)
GI50 (CCRF-CEM): > 100 µM (inactive)
GI50 (OVCAR-8): > 100 µM (inactive)
GI50 (BT-549): 50.4 µM (inactive)
GI50 (PC-3): > 100 µM (inactive)
GI50 (A498): > 100 µM (inactive)
GI50 (SF-539): > 100 µM (inactive)
GI50 (SK-OV-3): > 100 µM (inactive)
GI50 (SR): > 100 µM (inactive)
GI50 (786-0): > 100 µM (inactive)
GI50 (HOP-92): > 100 µM (inactive)
GI50 (LOX IMVI): > 100 µM (inactive)
GI50 (UACC-62): > 100 µM (inactive)
GI50 (ACHN): > 100 µM (inactive)
GI50 (A549): > 100 µM (inactive)
GI50 (KM12): > 100 µM (inactive)
GI50 (HT-29): > 100 µM (inactive)
GI50 (NCI/ADR-RES): > 100 µM (inactive)
GI50 (SK-MEL-2): > 100 µM (inactive)
GI50 (NCI-H460): > 100 µM (inactive)
GI50 (HOP-62): > 100 µM (inactive)
GI50 (HCT-15): > 100 µM
GI50 (SN12C): > 100 µM (inactive)
GI50 (T47D): > 100 µM (inactive)
GI50 (HCT-116): > 100 µM (inactive)
GI50 (SNB-75): 29.6 µM (inactive)
GI50 (SW-620): > 100 µM (inactive)
GI50 (MDA-MB-435): > 100 µM (inactive)
GI50 (CAKI-1): > 100 µM (inactive)
GI50 (U-251): > 100 µM (inactive)
GI50 (UACC-257): > 100 µM (inactive)
GI50 (SF-295): > 100 µM (inactive)
GI50 (NCI-H522): > 100 µM (inactive)
GI50 (K562): > 100 µM (inactive)
